How the values were obtained:
CYPSE (Flatsedge) [1] = assay: Postemergence weed control under flooded paddy conditions; type: in vivo, Cyperus serotinus; details: postemergence weeds
Method in brief: (§1)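 Herbicidal effect is judged by eye on a 0–9 scale versus control, 3–4 weeks after dosing. Dosing is into flood water kept 1.5–3 cm over the soil, at about 0.0313–0.500 kg/ha in aqueous/acetone 50/50 v/v, on 3–5 cm weeds and 1.5–2.5-leaf rice seedlings.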

[2] = test system: CHEAL (Lambsquarters, Common); assay: Preemergence herbicidal evaluation; type: in vivo, Chenopodium album; details: rated 4-5 weeks after treatment; for CHEAL rating: preemergence, 0-9 scale
Method in brief: (§2)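 Each species is sown separately in potting soil over roughly an inch of soil before any emergence. The soil surface then receives an aqueous acetone spray delivering about 0.0156 to 0.500 kg/ha of compound. After four to five weeks, injury is scored from 0 to 9 relative to a control.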

[3] = test system: GLXMAW (Soybean, Williams); assay: Postemergence herbicidal evaluation; type: in vivo, Glycine max, (L.) Merr. cv Williams; details: for Herbicidal rating GLXMAW: postemergence
Method in brief: (§3)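 Rate range approx. 0.0156–0.500 kg/ha. Foliar application at 40 psi to ~2-week seedlings; surfactant 0.5% TWEEN 20 in 50/50 acetone/water. Evaluation 4–5 wk post-treatment by 0–9 visual injury score, means of replicate tests.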

ZEAMX (Corn, Field) = assay: Postemergence herbicidal evaluation; type: in vivo, Zea mays; details: for Herbicidal rating ZEAMX: postemergence
Method in brief: as §3

CYPIR (Rice Flatsedge) = assay: Postemergence weed control under flooded paddy conditions; type: in vivo, Cyperus iria; details: postemergence weeds
Method in brief: as §1

[4] = test system: CHEAL (Lambsquarters, Common); assay: Postemergence herbicidal evaluation; type: in vivo, Chenopodium album; details: for Herbicidal rating CHEAL: postemergence
Method in brief: as §3

CASOB (Sicklepod) = assay: Preemergence herbicidal evaluation; type: in vivo, Cassia obtusifolia; details: rated 4-5 weeks after treatment; for CASOB rating: preemergence, 0-9 scale
Method in brief: as §2

ABUTH (Velvetleaf) = assay: Postemergence herbicidal evaluation; type: in vivo, Abutilon theophrasti; details: for Herbicidal rating ABUTH: postemergence
Method in brief: as §3

CYPSE (Flatsedge) [5] = assay: Preemergence weed control under flooded paddy conditions; type: in vivo, Cyperus serotinus; details: rated 3-4 weeks after treatment
Method in brief: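 First, seeds or propagules go into the top 0.5 cm of silt loam; next, water is held 1.5 to 3 cm over the soil; then compound (50/50 acetone/water) is pipetted into it at about 0.0313 to 0.500 kg/ha; finally plants are rated visually 0-9 after three to four weeks.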

GALAP (Galium) = assay: Preemergence herbicidal evaluation; type: in vivo, Galium aparine; details: rated 4-5 weeks after treatment; for GALAP rating: preemergence, 0-9 scale
Method in brief: as §2

AMBEL (Ragweed, Common) [6] = assay: Postemergence herbicidal evaluation; type: in vivo, Ambrosia artemisifolia; details: for Herbicidal rating AMBEL: postemergence
Method in brief: as §3

AMBEL (Ragweed, Common) [7] = assay: Preemergence herbicidal evaluation; type: in vivo, Ambrosia artemisifolia; details: rated 4-5 weeks after treatment; for AMBEL rating: preemergence, 0-9 scale
Method in brief: as §2

ECHCG (Barnyardgrass) = assay: Postemergence herbicidal evaluation; type: in vivo, Echinochloa crus-galli; details: for Herbicidal rating ECHCG: postemergence
Method in brief: as §3

ORYSAT (Rice, Tebonnet) = assay: Postemergence herbicidal evaluation; type: in vivo, Oryza sativa, (L.) Tebonnet; details: for Herbicidal rating ORYSAT: postemergence
Method in brief: as §3

[8] = rate 0.0313 kg/ha, 3-4 weeks after treatment
[9] = rate 0.1250 kg/ha, 3-4 weeks after treatment
[10] = rate 0.2500 kg/ha, 3-4 weeks after treatment
[11] = Rate 0.2500 kg/ha, rated 3 to 4 weeks after treatment
[12] = Rate 0.5000 kg/ha, rated 3 to 4 weeks after treatment

SMILES: Cn1c(C(F)(F)F)cc(=O)n(-c2cc(N=C3SCC(=O)N3CC(=O)OC(C)(C)C)c(Cl)cc2F)c1=O [Compound 43, tert-Butyl 2-{{2-chloro-5-[3,6-dihydro-3-methyl-2,6-dioxo-4-(trifluoromethyl)-1(2H)-pyrimidinyl]-4-fluorophenyl}imino}-4-oxo-3-thiazolidineacetate]
- Herbicidal rating CYPSE (CYPSE (Flatsedge) [1]; [8]): 5.0
- Herbicidal rating CYPSE (CYPSE (Flatsedge) [1]; [9]): 8.0
- Herbicidal rating CYPSE (CYPSE (Flatsedge) [1]; [10]): 9.0
- Preemergence herbicidal rating CHEAL ([2]; rate 0.0156 kg/ha): 9.0
- Preemergence herbicidal rating CHEAL ([2]; rate 0.0313 kg/ha): 9.0
- Preemergence herbicidal rating CHEAL ([2]; rate 0.0625 kg/ha): 9.0
- Preemergence herbicidal rating CHEAL ([2]; rate 0.1250 kg/ha): 9.0
- Preemergence herbicidal rating CHEAL ([2]; rate 0.2500 kg/ha): 9.0
- Postemergence herbicidal rating GLXMAW ([3]; Rate 0.0158 kg/ha): 7.5
- Postemergence herbicidal rating GLXMAW ([3]; Rate 0.0315 kg/ha): 7.0
- Postemergence herbicidal rating GLXMAW ([3]; Rate 0.0630 kg/ha): 7.0
- Postemergence herbicidal rating ZEAMX (ZEAMX (Corn, Field); Rate 0.0158 kg/ha): 4.5
- Postemergence herbicidal rating ZEAMX (ZEAMX (Corn, Field); Rate 0.0315 kg/ha): 5.0
- Postemergence herbicidal rating ZEAMX (ZEAMX (Corn, Field); Rate 0.0630 kg/ha): 5.5
- Herbicidal rating CYPIR (CYPIR (Rice Flatsedge); [8]): 0.0
- Herbicidal rating CYPIR (CYPIR (Rice Flatsedge); [9]): 4.0
- Herbicidal rating CYPIR (CYPIR (Rice Flatsedge); [10]): 5.0
- Postemergence herbicidal rating CHEAL ([4]; Rate 0.0158 kg/ha): 5.0
- Postemergence herbicidal rating CHEAL ([4]; Rate 0.0315 kg/ha): 9.0
- Postemergence herbicidal rating CHEAL ([4]; Rate 0.0630 kg/ha): 9.0
- Preemergence herbicidal rating CASOB (CASOB (Sicklepod); rate 0.0156 kg/ha): 0.0
- Preemergence herbicidal rating CASOB (CASOB (Sicklepod); rate 0.0313 kg/ha): 0.0
- Preemergence herbicidal rating CASOB (CASOB (Sicklepod); rate 0.0625 kg/ha): 0.0
- Preemergence herbicidal rating CASOB (CASOB (Sicklepod); rate 0.1250 kg/ha): 8.0
- Preemergence herbicidal rating CASOB (CASOB (Sicklepod); rate 0.2500 kg/ha): 9.0
- Postemergence herbicidal rating ABUTH (ABUTH (Velvetleaf); Rate 0.0158 kg/ha): 9.0
- Postemergence herbicidal rating ABUTH (ABUTH (Velvetleaf); Rate 0.0315 kg/ha): 9.0
- Postemergence herbicidal rating ABUTH (ABUTH (Velvetleaf); Rate 0.0630 kg/ha): 9.0
- Herbicidal rating CYPSE (CYPSE (Flatsedge) [5]; 0.0313 kg/ha): 5.0
- Herbicidal rating CYPSE (CYPSE (Flatsedge) [5]; 0.0625 kg/ha): 5.0
- Herbicidal rating CYPSE (CYPSE (Flatsedge) [5]; 0.1250 kg/ha): 8.0
- Herbicidal rating CYPSE (CYPSE (Flatsedge) [5]; 0.2500 kg/ha): 9.0
- Preemergence herbicidal rating GALAP (GALAP (Galium); rate 0.0156 kg/ha): 0.0
- Preemergence herbicidal rating GALAP (GALAP (Galium); rate 0.0313 kg/ha): 0.0
- Preemergence herbicidal rating GALAP (GALAP (Galium); rate 0.0625 kg/ha): 0.0
- Preemergence herbicidal rating GALAP (GALAP (Galium); rate 0.1250 kg/ha): 9.0
- Preemergence herbicidal rating GALAP (GALAP (Galium); rate 0.2500 kg/ha): 9.0
- Postemergence herbicidal rating AMBEL (AMBEL (Ragweed, Common) [6]; Rate 0.0158 kg/ha): 9.0
- Postemergence herbicidal rating AMBEL (AMBEL (Ragweed, Common) [6]; Rate 0.0315 kg/ha): 9.0
- Postemergence herbicidal rating AMBEL (AMBEL (Ragweed, Common) [6]; Rate 0.0630 kg/ha): 9.0
- Preemergence herbicidal rating AMBEL (AMBEL (Ragweed, Common) [7]; rate 0.0156 kg/ha): 0.0
- Preemergence herbicidal rating AMBEL (AMBEL (Ragweed, Common) [7]; rate 0.0313 kg/ha): 0.0
- Preemergence herbicidal rating AMBEL (AMBEL (Ragweed, Common) [7]; rate 0.0625 kg/ha): 0.0
- Preemergence herbicidal rating AMBEL (AMBEL (Ragweed, Common) [7]; rate 0.1250 kg/ha): 3.0
- Preemergence herbicidal rating AMBEL (AMBEL (Ragweed, Common) [7]; rate 0.2500 kg/ha): 4.0
- Postemergence herbicidal rating ECHCG (ECHCG (Barnyardgrass); Rate 0.0158 kg/ha): 0.0
- Postemergence herbicidal rating ECHCG (ECHCG (Barnyardgrass); Rate 0.0315 kg/ha): 0.0
- Postemergence herbicidal rating ECHCG (ECHCG (Barnyardgrass); Rate 0.0630 kg/ha): 0.0
- Postemergence herbicidal rating ORYSAT (ORYSAT (Rice, Tebonnet); Rate 0.0158 kg/ha): 1.0
- Postemergence herbicidal rating ORYSAT (ORYSAT (Rice, Tebonnet); Rate 0.0315 kg/ha): 2.0
- Postemergence herbicidal rating ORYSAT (ORYSAT (Rice, Tebonnet); Rate 0.0630 kg/ha): 3.0

SMILES: CN1C(=O)C(CC(=O)NS(=O)(=O)c2ccccc2)SC1=Nc1cc(-n2c(=O)cc(C(F)(F)F)n(C)c2=O)c(F)cc1Cl (centres unmarked) [Compound 102, 2-{{2-Chloro-5-[3,6-dihydro-3-methyl-2,6-dioxo-4-(trifluoromethyl)-1(2H)-pyrimidinyl]-4-fluorophenyl}imino}-3-methyl-4-oxo-N-(phenylsulfonyl)-5-thiazolidineacetamide]
- Herbicidal rating CYPSE (CYPSE (Flatsedge) [1]; [11]): 0.0
- Herbicidal rating CYPSE (CYPSE (Flatsedge) [1]; [12]): 0.0
- CHEAL rating ([2]; 0.0313 kg/ha): 6.0
- CHEAL rating ([2]; 0.0625 kg/ha): 5.0
- CHEAL rating ([2]; 0.2500 kg/ha): 1.0
- CHEAL rating ([2]; 0.5000 kg/ha): 9.0
- Herbicidal rating GLXMAW ([3]; rate 0.0156 kg/ha): 5.0
- Herbicidal rating GLXMAW ([3]; rate 0.0313 kg/ha): 5.0
- Herbicidal rating GLXMAW ([3]; rate 0.0625 kg/ha): 6.0
- Herbicidal rating GLXMAW ([3]; rate 0.1250 kg/ha): 7.5
- Herbicidal rating ZEAMX (ZEAMX (Corn, Field); rate 0.0156 kg/ha): 4.5
- Herbicidal rating ZEAMX (ZEAMX (Corn, Field); rate 0.0313 kg/ha): 5.0
- Herbicidal rating ZEAMX (ZEAMX (Corn, Field); rate 0.0625 kg/ha): 5.5
- Herbicidal rating ZEAMX (ZEAMX (Corn, Field); rate 0.1250 kg/ha): 6.5
- Herbicidal rating CYPIR (CYPIR (Rice Flatsedge); [11]): 2.0
- Herbicidal rating CYPIR (CYPIR (Rice Flatsedge); [12]): 6.0
- Herbicidal rating CHEAL ([4]; rate 0.0156 kg/ha): 3.0
- Herbicidal rating CHEAL ([4]; rate 0.0313 kg/ha): 4.0
- Herbicidal rating CHEAL ([4]; rate 0.0625 kg/ha): 6.0
- Herbicidal rating CHEAL ([4]; rate 0.1250 kg/ha): 7.0
- CASOB rating (CASOB (Sicklepod); 0.0156 kg/ha): 0.0
- CASOB rating (CASOB (Sicklepod); 0.0313 kg/ha): 0.0
- CASOB rating (CASOB (Sicklepod); 0.0625 kg/ha): 0.0
- CASOB rating (CASOB (Sicklepod); 0.2500 kg/ha): 0.0
- CASOB rating (CASOB (Sicklepod); 0.5000 kg/ha): 4.0
- Herbicidal rating ABUTH (ABUTH (Velvetleaf); rate 0.0156 kg/ha): 7.0
- Herbicidal rating ABUTH (ABUTH (Velvetleaf); rate 0.0313 kg/ha): 9.0
- Herbicidal rating ABUTH (ABUTH (Velvetleaf); rate 0.0625 kg/ha): 9.0
- Herbicidal rating ABUTH (ABUTH (Velvetleaf); rate 0.1250 kg/ha): 9.0
- CYPSE herbicidal effect rating (CYPSE (Flatsedge) [5]; 0.2500 kg/ha): 0.0
- CYPSE herbicidal effect rating (CYPSE (Flatsedge) [5]; 0.5000 kg/ha): 0.0
- GALAP rating (GALAP (Galium); 0.0156 kg/ha): 0.0
- GALAP rating (GALAP (Galium); 0.0313 kg/ha): 1.0
- GALAP rating (GALAP (Galium); 0.0625 kg/ha): 0.0
- GALAP rating (GALAP (Galium); 0.2500 kg/ha): 1.0
- GALAP rating (GALAP (Galium); 0.5000 kg/ha): 4.0
- Herbicidal rating AMBEL (AMBEL (Ragweed, Common) [6]; rate 0.0156 kg/ha): 7.0
- Herbicidal rating AMBEL (AMBEL (Ragweed, Common) [6]; rate 0.0313 kg/ha): 9.0
- Herbicidal rating AMBEL (AMBEL (Ragweed, Common) [6]; rate 0.0625 kg/ha): 7.0
- Herbicidal rating AMBEL (AMBEL (Ragweed, Common) [6]; rate 0.1250 kg/ha): 9.0
- AMBEL rating (AMBEL (Ragweed, Common) [7]; 0.0156 kg/ha): 0.0
- AMBEL rating (AMBEL (Ragweed, Common) [7]; 0.0313 kg/ha): 0.0
- AMBEL rating (AMBEL (Ragweed, Common) [7]; 0.0625 kg/ha): 0.0
- AMBEL rating (AMBEL (Ragweed, Common) [7]; 0.2500 kg/ha): 4.0
- AMBEL rating (AMBEL (Ragweed, Common) [7]; 0.5000 kg/ha): 7.0
- Herbicidal rating ECHCG (ECHCG (Barnyardgrass); rate 0.0156 kg/ha): 0.0
- Herbicidal rating ECHCG (ECHCG (Barnyardgrass); rate 0.0313 kg/ha): 1.0
- Herbicidal rating ECHCG (ECHCG (Barnyardgrass); rate 0.0625 kg/ha): 2.0
- Herbicidal rating ECHCG (ECHCG (Barnyardgrass); rate 0.1250 kg/ha): 6.0
- Herbicidal rating ORYSAT (ORYSAT (Rice, Tebonnet); rate 0.0156 kg/ha): 2.5
- Herbicidal rating ORYSAT (ORYSAT (Rice, Tebonnet); rate 0.0313 kg/ha): 3.0
- Herbicidal rating ORYSAT (ORYSAT (Rice, Tebonnet); rate 0.0625 kg/ha): 3.0
- Herbicidal rating ORYSAT (ORYSAT (Rice, Tebonnet); rate 0.1250 kg/ha): 3.0

From US20020137929A1, “1 - (3-heterocyclylphenyl) isothiourea, -isourea, -guanidine and -amidine herbicidal agents” (Intellectual Property Department, BASF Aktiengesellschaft, priority 1998, published 2002)
